Test results published in article PMC10689823, “Discovery of a Drug-like, Natural Product-Inspired DCAF11 Ligand Chemotype” (Nature Communications, 2023).
Where “and” joins values, the source holds several entries; their conditions need not be identical. Equal entries are not always repeated.

How the values were obtained:
Type in all cases: cell-based
PDEδ = PDEδ (Homo sapiens, UniProt O43924); test: PDEδ levels by Western blot in Jurkat cells; set-up: endogenous in cells; host or cells: Jurkat; details: 6 h; for PDEδ degradation activity compared with degrader 5: 10 μM
BRD2 [1] = target: T1, BRD2 (Homo sapiens, UniProt P25440); test: BRD2 levels by Western blot in KBM7 cells (WT, DCAF11 knockout, DDB1 knockout); set-up: endogenous in cells; host or cells: KBM7 (WT, DCAF11 KO, DDB1 KO); details: 9 at 3 μM, 10 at 10 μM, 11 at 10 μM; 6 h
Procedure: (§1) Cells were washed with PBS and lysed in lysis buffer (50 mM Tris-HCl, pH 7.4, 150 mM NaCl, 1% Triton X-100, 1% sodium deoxycholate, 0.1% SDS) with complete protease inhibitor cocktail (Roche, 11836170001) for 30 min on ice. For Ramos cells, cell pellets were lysed in lysis buffer (50 mM Tris-HCl, pH 8, 150 mM NaCl, 1% NP-40, 0.5% sodium deoxycholate) with complete protease inhibitor cocktail. After centrifugation at 16,000 x g, the supernatant was transferred into a new tube and the protein concentration was determined by DC protein assay (BIO-RAD, 5000116). Proteins were separated by SDS-PAGE and transferred to a PVDF membrane (Thermo scientific, 0.45 μm, 88518). For PDEδ, BRD2, GAPDH, BRD4, Vinculin and BTK, the membranes were blocked with Intercept® Blocking Buffer (LI-COR Biosciences, 927-70001) at room temperature for 1 h. The primary antibodies for these proteins were diluted with Intercept® Blocking Buffer (1:500 for PDEδ, 1:3000 for Vinculin, and 1:1000 for other proteins) and incubated with the membranes overnight at 4 °C. Membranes were washed with PBS + 0.1% Tween 20 (PBS-T) five times and incubated with secondary antibodies conjugated to IRDye® Infrared Fluorescent Dyes (1:5000, LI-COR Biosciences) at room temperature for 1 h with protection from light. After washing the membrane, signals were visualized using the ChemiDoc MP Imaging System (BIO-RAD Laboratories). For detection of LC3B, BRD3, BLK, DCAF11, DDB1 RBX1, FIP200, V5- and FLAG-Tag the membranes were blocked with 5% milk in PBS-T at room temperature for 1 h. The primary antibodies for these proteins were diluted in 5% milk in PBS-T buffer (1:200 for BRD3, 1:1000 for other proteins) and incubated with the membranes overnight at 4 °C. Membranes were washed with PBS-T five times and incubated with HRP secondary antibodies (1:1500) at room temperature for 1 h. After washing the membrane, protein detection was performed using Western blotting detection reagent (Thermo Scientific, 34095) and the ChemiDoc MP Imaging System (BIO-RAD). Relative band intensities were quantified using Image Lab (BIO-RAD).
DCAF11- or FIP200 (RB1CC1)-targeting sgRNAs were lentivirally packaged using PEI transfection of Lenti-X cells. The viral supernatant was harvested after 72 h, cleared of cellular debris by filtration through a 0.45-µm PES filter and stored in aliquots at −80 °C. The appropriate amount of viral supernatant was transduced into KBM7 cells (1 × 10^6 cells/mL) via spinfection (2000 rpm, 1 h, 37 °C) with polybrene (8 µg/mL). Two days post transduction, the cells were selected with puromycin (1 µg/mL) for a total of 5 days, after which the knockout pools were validated via western blotting.

BRD2 [2] = target: T1, BRD2; test: BRD2 levels by Western blot in Jurkat cells; set-up: endogenous in cells; host or cells: Jurkat; Hep G2; MDA-MB-231; KBM7 (WT, DCAF11 KO, DDB1 KO)
Procedure: as §1

[3] = Cell viability assay (CellTiter-Glo) in Jurkat cells; details: human, Jurkat cells
Procedure: (§2) Jurkat cells (3 × 10^3) and Hep G2 cells (3.5 × 10^3) were seeded in 96-well plates in 100 μL culture medium. Cells were treated with compounds dissolved in 50 μl medium at the indicated concentration for 72 h, at the same time, one plate of cells without compounds treatment was used for the cell count at time zero. After adding 40 μl of CellTiter-Glo® reagent (Promega, G7571) to each well for 10 min at room temperature, the luminescence was measured on a Spark® Multimode Microplate Reader (Tecan). The data was analyzed by the GraphPad Prism 9.0.

Jurkat cells = test: as above; details: for Relative cell viability (%): Jurkat cells, 72 h, Fig. 4k; for Cell viability (%) relative to DMSO: individual replicates, Supplementary Fig. 7g
Procedure: as §2

T1 sequence (P25440 whole entry): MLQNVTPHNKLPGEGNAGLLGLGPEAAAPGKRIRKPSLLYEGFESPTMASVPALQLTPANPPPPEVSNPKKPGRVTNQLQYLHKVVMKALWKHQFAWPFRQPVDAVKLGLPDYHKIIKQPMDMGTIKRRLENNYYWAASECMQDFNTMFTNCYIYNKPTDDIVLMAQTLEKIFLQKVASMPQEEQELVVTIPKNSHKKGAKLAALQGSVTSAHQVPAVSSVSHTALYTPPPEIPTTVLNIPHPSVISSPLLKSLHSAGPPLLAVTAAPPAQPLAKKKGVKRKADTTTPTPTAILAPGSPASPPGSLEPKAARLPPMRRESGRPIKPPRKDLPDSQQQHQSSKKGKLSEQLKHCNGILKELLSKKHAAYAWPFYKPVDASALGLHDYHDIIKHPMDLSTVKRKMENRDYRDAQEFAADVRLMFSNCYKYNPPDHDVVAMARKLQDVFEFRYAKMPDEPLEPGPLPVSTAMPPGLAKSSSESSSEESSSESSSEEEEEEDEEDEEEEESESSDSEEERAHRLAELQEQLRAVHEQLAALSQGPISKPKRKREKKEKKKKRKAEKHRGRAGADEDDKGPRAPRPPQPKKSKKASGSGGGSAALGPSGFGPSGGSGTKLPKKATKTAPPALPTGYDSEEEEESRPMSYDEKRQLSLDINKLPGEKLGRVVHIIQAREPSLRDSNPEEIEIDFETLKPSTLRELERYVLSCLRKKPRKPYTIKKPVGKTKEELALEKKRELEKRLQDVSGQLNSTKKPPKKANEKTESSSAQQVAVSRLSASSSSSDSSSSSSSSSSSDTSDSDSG
Sequence of PDEδ (O43924 whole entry): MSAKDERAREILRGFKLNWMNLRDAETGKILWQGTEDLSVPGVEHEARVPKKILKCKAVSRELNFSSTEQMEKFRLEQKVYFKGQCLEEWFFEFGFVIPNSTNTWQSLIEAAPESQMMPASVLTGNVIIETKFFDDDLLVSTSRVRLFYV

## Cc1ccc(-n2nc3c(=O)n(CCCC(=O)NCCc4ccc(C(=O)NCCOCCOCCOCCOc5c(Br)cc(/C=C6\C(=O)Nc7ccc(I)cc76)cc5Br)cc4)nc(C)c3c2C)cc1 [Compound 6, (Z)-N-(2-(2-(2-(2-(2,6-dibromo-4-((5-iodo-2-oxoindolin-3-ylidene)methyl)phenoxy)ethoxy)ethoxy)ethoxy)ethyl)-4-(2-(4-(3,4-dimethyl-7-oxo-2-(p-tolyl)-2,7-dihydro-6H-pyrazolo[3,4-d]pyridazin-6-yl)butanamido)ethyl)benzamide]
PDEδ; Jurkat, DMSO pretreatment 2 h, then 10 μM, 6h, Fig. 1h, read-out: PDEδ/Vinculin intensity (relative to DMSO control group)
  remaining activity at 10 µM: 55.4%

## Cc1sc2c(c1C)C(c1ccc(Cl)cc1)=N[C@@H](CC(=O)NCCOCCOCCOCCOc1c(Br)cc(/C=C3\C(=O)Nc4ccc(I)cc43)cc1Br)c1nnc(C)n1-2 [Compound 11]
BRD2 [1]
  BRD2 degradation in DCAF11 knockout (KO1 and KO2) KBM7 cells: abolished
BRD2 [2]; 6 h
  efficiency of BRD2 degradation, 10 versus iodo analog 11: comparable efficiency of BRD2 degradation

## Cc1ccc(-n2nc3c(=O)n(CCCC(=O)NCCc4ccc(C(=O)NCCOCCOCCOCCOc5c(Br)cc(C=C6C(=O)Nc7cc(Br)ccc76)cc5Br)cc4)nc(C)c3c2C)cc1 [Compound 54]
PDEδ
  PDEδ degradation activity compared with degrader 5: comparable or better degradation activity
  completeness of PDEδ degradation: did not induce complete degradation

## Cc1ccc(-n2nc3c(=O)n(CCCC(=O)NCCc4ccc(C(=O)NCCOCCOCCOCCOc5c(Br)cc(C=C6C(=O)N(c7ccccc7)c7ccccc76)cc5Br)cc4)nc(C)c3c2C)cc1 [Compound 55]
PDEδ
  PDEδ degradation activity compared with degrader 5: comparable or better degradation activity
  completeness of PDEδ degradation: did not induce complete degradation

## Cc1sc2c(c1C)C(c1ccc(Cl)cc1)=N[C@@H](CC(=O)OC(C)(C)C)c1nnc(C)n1-2 [JQ1, reference compound]
[3]; concentration 10 nmol/L, individual replicates, Supplementary Fig. 7g, read-out: Cell viability (%) relative to DMSO
  viability at 72 h, 10 nmol/L: 94.3%
[3]; concentration 30 nmol/L, individual replicates, Supplementary Fig. 7g, read-out: Cell viability (%) relative to DMSO
  viability at 72 h, 30 nmol/L: 90.8%
[3]; concentration 100 nmol/L, individual replicates, Supplementary Fig. 7g, read-out: Cell viability (%) relative to DMSO
  viability at 72 h, 100 nmol/L: 82.6%
[3]; concentration 300 nmol/L, individual replicates, Supplementary Fig. 7g, read-out: Cell viability (%) relative to DMSO
  viability at 72 h, 300 nmol/L: 69%
[3]; concentration 1000 nmol/L, individual replicates, Supplementary Fig. 7g, read-out: Cell viability (%) relative to DMSO
  viability at 72 h, 1000 nmol/L: 54.6%
[3]; concentration 3000 nmol/L, individual replicates, Supplementary Fig. 7g, read-out: Cell viability (%) relative to DMSO
  viability at 72 h, 3000 nmol/L: 46%
[3]; concentration 10000 nmol/L, individual replicates, Supplementary Fig. 7g, read-out: Cell viability (%) relative to DMSO
  viability at 72 h, 10000 nmol/L: 46.5%
[3]; concentration 30000 nmol/L, individual replicates, Supplementary Fig. 7g, read-out: Cell viability (%) relative to DMSO
  viability at 72 h, 30000 nmol/L: 40.9%
[3]; 72 h, 10 nM, Fig. 4k, read-out: Relative cell viability (%)
  viability at 72 h, 0.01 µM: 89.4%
[3]; 72 h, 30 nM, Fig. 4k, read-out: Relative cell viability (%)
  viability at 72 h, 0.03 µM: 77.8%
[3]; 72 h, 100 nM, Fig. 4k, read-out: Relative cell viability (%)
  viability at 72 h, 0.1 µM: 52.1%
[3]; 72 h, 300 nM, Fig. 4k, read-out: Relative cell viability (%)
  viability at 72 h, 0.3 µM: 35%
[3]; 72 h, 1000 nM, Fig. 4k, read-out: Relative cell viability (%)
  viability at 72 h, 1 µM: 18.1%
[3]; 72 h, 3000 nM, Fig. 4k, read-out: Relative cell viability (%)
  viability at 72 h, 3 µM: 8.86%
[3]; 72 h, 10000 nM, Fig. 4k, read-out: Relative cell viability (%)
  viability at 72 h, 10 µM: 4.59%
[3]; 72 h, 30000 nM, Fig. 4k, read-out: Relative cell viability (%)
  viability at 72 h, 30 µM: 1.85%
Jurkat cells; 10 nM, 0.01 µM
  Relative cell viability (%): 100.371% and 106.106%
Jurkat cells; 30 nM, 0.03 µM
  Relative cell viability (%): 87.8283% and 96.2473%
Jurkat cells; 100 nM, 0.1 µM
  Relative cell viability (%): 64.4714% and 60.7516%
Jurkat cells; 300 nM, 0.3 µM
  Relative cell viability (%): 45.1617% and 37.3276%
Jurkat cells; 1000 nM, 1 µM
  Relative cell viability (%): 18.9902% and 17.7354%
Jurkat cells; 3000 nM, 3 µM
  Relative cell viability (%): 9.435% and 7.082%
Jurkat cells; 10000 nM, 10 µM
  Relative cell viability (%): 4.364% and 3.464%
Jurkat cells; 30000 nM, 30 µM
  Relative cell viability (%): 1.255% and 1.237%
Jurkat cells; concentration 10 nmol/L
  Cell viability (%) relative to DMSO: 103.479% and 107.527%
Jurkat cells; concentration 30 nmol/L
  Cell viability (%) relative to DMSO: 101.884% and 107.914%
Jurkat cells; concentration 100 nmol/L
  Cell viability (%) relative to DMSO: 89.9727% and 100.534%
Jurkat cells; concentration 300 nmol/L
  Cell viability (%) relative to DMSO: 75.4252% and 84.9435%
Jurkat cells; concentration 1000 nmol/L
  Cell viability (%) relative to DMSO: 55.019% and 62.5193%
Jurkat cells; concentration 3000 nmol/L
  Cell viability (%) relative to DMSO: 46.7418% and 50.7086%
Jurkat cells; concentration 10000 nmol/L
  Cell viability (%) relative to DMSO: 42.9072% and 46.8783%
Jurkat cells; concentration 30000 nmol/L
  Cell viability (%) relative to DMSO: 37.1426% and 41.0159%
BRD2 [2]; 3 μM, 4 h
  BRD2 protein levels, ligands alone or in combination: did not reduce BRD2 protein levels
